Molecular target: human recombinant PAK1-KD protein (Homo sapiens, UniProt Q13153)
Assay: PAK1-KD (Kinase Domain) IC50 Zlyte Assay (FRET peptide substrate phosphorylation)
Details: Z'-LYTE, Biological Example 1

Sequence of human recombinant PAK1-KD protein (Q13153 270-521 limits assumed): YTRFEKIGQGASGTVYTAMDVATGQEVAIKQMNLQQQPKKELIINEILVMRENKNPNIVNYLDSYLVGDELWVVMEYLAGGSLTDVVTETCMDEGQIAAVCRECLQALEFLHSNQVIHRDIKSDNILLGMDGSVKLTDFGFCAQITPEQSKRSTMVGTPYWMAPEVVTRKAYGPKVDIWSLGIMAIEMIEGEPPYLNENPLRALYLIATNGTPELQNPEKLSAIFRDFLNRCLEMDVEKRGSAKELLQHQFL

Compound | Ki
Cc1cccc(-c2ccc(-c3cc4cnc(NC5COC5)nc4n(C[C@H]4CNCCO4)c3=O)c(Cl)c2)n1 [Example I-159, 6-[2-Chloro-4-(6-methyl-2-pyridyl)phenyl]-8-[[(2R)-morpholin-2-yl]methyl]-2-(oxetan-3-ylamino)pyrido[2,3-d]pyrimidin-7-one] | 10.8 nM
CCNc1ncc2cc(-c3ccc(-c4cccc(C)n4)cc3C)c(=O)n(CCCCO)c2n1 [Example I-73, 2-(Ethylamino)-8-(4-hydroxybutyl)-6-[2-methyl-4-(6-methyl-2-pyridyl)phenyl]pyrido[2,3-d]pyrimidin-7-one] | 18.9 nM
CNc1ncc2cc(-c3ccc(-c4cccc(C)n4)cc3C)c(=O)n(C[C@H]3OC[C@H](N)CO3)c2n1 [Example I-170, 8-[(5-Amino-1,3-dioxan-2-yl)methyl]-2-(methylamino)-6-[2-methyl-4-(6-methyl-2-pyridyl)phenyl]pyrido[2,3-d]pyrimidin-7-one] | 5.3 nM
CNc1ncc2cc(-c3ccc(-c4cncc(C)n4)cc3Cl)c(=O)n(CC[C@H]3OC[C@@H](N)CO3)c2n1 [Example I-172, 8-[2-(5-amino-1,3-dioxan-2-yl)ethyl]-6-[2-chloro-4-(6-methylpyrazin-2-yl)phenyl]-2-(methylamino)pyrido[2,3-d]pyrimidin-7-one] | 11.9 nM
CCNc1ncc2cc(-c3ccc(-c4cncc(C)n4)cc3Cl)c(=O)n(CC[C@H](O)CO)c2n1 [Example I-83, (S)-6-(2-Chloro-4-(6-methylpyrazin-2-yl)phenyl)-8-(3,4-dihydroxybutyl)-2-(ethylamino)pyrido[2,3-d]pyrimidin-7(8H)-one] | 107 nM
Cc1cncc(-c2ccc(-c3cc4cnc(NC(C)C)nc4n(CCC4CNC(=O)C4)c3=O)c(Cl)c2)n1 (single isomer, unassigned) [Example I-99, 6-[2-Chloro-4-(6-methylpyrazin-2-yl)phenyl]-2-(isopropylamino)-8-[2-(5-oxopyrrolidin-3-yl)ethyl]pyrido[2,3-d]pyrimidin-7-one] | 19.1 nM
CCNc1ncc2cc(-c3ccc(-c4cncc(C)n4)cc3Cl)c(=O)n(CCC(N)=O)c2n1 [Example I-69, 3-[6-[2-chloro-4-(6-methylpyrazin-2-yl)phenyl]-2-(ethylamino)-7-oxo-pyrido[2,3-d]pyrimidin-8-yl]propanamide] | 103 nM
CNc1ncc2cc(-c3ccc(-c4cncc(C)n4)cc3Cl)c(=O)n(CCNCCO)c2n1 [Example I-139, 6-[2-chloro-4-(6-methylpyrazin-2-yl)phenyl]-8-[2-(2-hydroxyethylamino)ethyl]-2-(methylamino)pyrido[2,3-d]pyrimidin-7-one] | 56 nM
Cc1cccc(-c2ccc(-c3cc4cnc(NC5COC5)nc4n(CCCCO)c3=O)c(C)c2)n1 [Example I-81, 8-(4-Hydroxybutyl)-6-[2-methyl-4-(6-methyl-2-pyridyl)phenyl]-2-(oxetan-3-ylamino)pyrido[2,3-d]pyrimidin-7-one] | 6.5 nM
CNc1ncc2cc(-c3ccc(-c4cccc(C)n4)cc3Cl)c(=O)n(CC[C@H]3OC[C@@H](N)CO3)c2n1 [Example I-134, 8-[2-(5-amino-1,3-dioxan-2-yl)ethyl]-6-[2-chloro-4-(6-methyl-2-pyridyl)phenyl]-2-(methylamino)pyrido[2,3-d]pyrimidin-7-one] | 3.45 nM
Cc1cncc(-c2ccc(-c3cc4cnc(NC5COC5)nc4n(C[C@H]4OC[C@H](N)CO4)c3=O)c(Cl)c2)n1 [Example I-164, 8-[(5-amino-1,3-dioxan-2-yl)methyl]-6-[2-chloro-4-(6-methylpyrazin-2-yl)phenyl]-2-(oxetan-3-ylamino)pyrido[2,3-d]pyrimidin-7-one] | 9.9 nM
CNc1ncc2cc(-c3ccc(-c4cccc(C)n4)cc3Cl)c(=O)n(CC[C@H]3OC[C@H](N)CO3)c2n1 [Example I-137, 8-[2-(5-amino-1,3-dioxan-2-yl)ethyl]-6-[2-chloro-4-(6-methyl-2-pyridyl)phenyl]-2-(methylamino)pyrido[2,3-d]pyrimidin-7-one] | 0.92 nM
CCNc1ncc2cc(-c3ccc(-c4cncc(C)n4)cc3Cl)c(=O)n(CCOC3CCNC3)c2n1 (single isomer, unassigned) [Example I-51] | 13.2 nM
CCNc1ncc2cc(-c3ccc(-c4cncc(C)n4)cc3Cl)c(=O)n(CCC3CNCCO3)c2n1 (single isomer, unassigned) [Example I-21] | 9.8 nM
CNc1ncc2cc(-c3ccc(-c4cncc(C)n4)cc3Cl)c(=O)n(CC(=O)N3CC[C@@H](N)C3)c2n1 [Example I-152, 8-[2-[(3R)-3-Aminopyrrolidin-1-yl]-2-oxo-ethyl]-6-[2-chloro-4-(6-methylpyrazin-2-yl)phenyl]-2-(methylamino)pyrido[2,3-d]pyrimidin-7-one] | 21.1 nM
CCNc1ncc2cc(-c3ccc(-c4cncc(C)n4)cc3Cl)c(=O)n(CCCCO)c2n1 [Example I-36, 6-[2-Chloro-4-(6-methylpyrazin-2-yl)phenyl]-2-(ethylamino)-8-(4-hydroxybutyl)pyrido[2,3-d]pyrimidin-7-one] | 71.8 nM

Compound | Ki
Cc1cccc(-c2ccc(-c3cc4cnc(NC5COC5)nc4n(CC(=O)N4CCNCC4)c3=O)c(Cl)c2)n1 [Example I-94, 6-[2-Chloro-4-(6-methyl-2-pyridyl)phenyl]-2-(oxetan-3-ylamino)-8-(2-oxo-2-piperazin-1-yl-ethyl)pyrido[2,3-d]pyrimidin-7-one] | 15.9 nM
CNc1ncc2cc(-c3ccc(-c4cccc(C)n4)cc3Cl)c(=O)n(CCC3(C#N)CCNC3)c2n1 (centres unmarked) [Example I-199, 3-[2-[6-[2-chloro-4-(6-methyl-2-pyridyl)phenyl]-2-(methylamino)-7-oxo-pyrido[2,3-d]pyrimidin-8-yl]ethyl]pyrrolidine-3-carbonitrile] | 2.8 nM
Cc1cncc(-c2ccc(-c3cc4cnc(NC(C)C)nc4n(CCC4CNC(=O)C4)c3=O)c(Cl)c2)n1 (single isomer, unassigned) [Example I-98, 6-[2-Chloro-4-(6-methylpyrazin-2-yl)phenyl]-2-(isopropylamino)-8-[2-(5-oxopyrrolidin-3-yl)ethyl]pyrido[2,3-d]pyrimidin-7-one] | 21.8 nM
CNc1ncc2cc(-c3ccc(-c4cccc(C)n4)cc3Cl)c(=O)n(CC3CNCCS3(=O)=O)c2n1 (single isomer, unassigned) [I-197 Isomer A, 6-[2-chloro-4-(6-methyl-2-pyridyl)phenyl]-8-[(1,1-dioxo-1 4-thiazinan-2-yl)methyl]-2-(methylamino)pyrido[2,3-d]pyrimidin-7-one] | 16.1 nM
CCNc1ncc2cc(-c3ccc(-c4cncc(C)n4)cc3Cl)c(=O)n(CC3CCN(CCO)CC3)c2n1 [Example I-39, 6-(2-Chloro-4-(6-methylpyrazin-2-yl)phenyl)-2-(ethylamino)-8-((1-(2-hydroxyethyl)piperidin-4-yl)methyl)pyrido[2,3-d]pyrimidin-7(8H)-one] | 40 nM
CCNc1ncc2cc(-c3ccc(-c4cncc(C)n4)cc3Cl)c(=O)n(C3COC4(CNC4)C3)c2n1 (centres unmarked) [Example I-58, 6-(2-Chloro-4-(6-methylpyrazin-2-yl)phenyl)-2-(ethylamino)-8-(5-oxa-2-azaspiro[3.4]octan-7-yl)pyrido[2,3-d]pyrimidin-7(8H)-one] | 71.1 nM
Cc1cccc(-c2ccc(-c3cc4cnc(NC5COC5)nc4n(CC[C@H]4OC[C@@H](N)CO4)c3=O)c(Cl)c2)n1 [Example I-133] | 0.9 nM
CCNc1ncc2cc(-c3ccc(-c4cncc(C)n4)cc3Cl)c(=O)n(CC(C)OC3CNC3)c2n1 (single isomer, unassigned) [Example I-92] | 47.6 nM
CCNc1ncc2cc(-c3ccc(-c4cncc(C)n4)cc3Cl)c(=O)n(CC3(O)CCN(C)CC3)c2n1 [Example I-105, 6-[2-Chloro-4-(6-methylpyrazin-2-yl)phenyl]-2-(ethylamino)-8-[(4-hydroxy-1-methyl-4-piperidyl)methyl]pyrido[2,3-d]pyrimidin-7-one] | 114 nM
CNc1ncc2cc(-c3ccc(-c4csc(C)n4)cc3Cl)c(=O)n(C[C@@H]3CNCCO3)c2n1 [Example I-179, 6-[2-chloro-4-(2-methylthiazol-4-yl)phenyl]-2-(methylamino)-8-[[(2S)-morpholin-2-yl]methyl]pyrido[2,3-d]pyrimidin-7-one] | 66.6 nM
CNc1ncc2cc(-c3ccc(-c4cccc(CO)n4)cc3Cl)c(=O)n(C[C@@H]3CNCCO3)c2n1 [Example I-195, 6-[2-Chloro-4-[6-(hydroxymethyl)-2-pyridyl]phenyl]-2-(methylamino)-8-[[(2S)-morpholin-2-yl]methyl]pyrido[2,3-d]pyrimidin-7-one] | 35.4 nM
Cc1cccc(-c2ccc(-c3cc4cnc(NC5COC5)nc4n(CC(=O)N4CCNCC4)c3=O)c(C)c2)n1 [Example I-106, 6-[2-Methyl-4-(6-methyl-2-pyridyl)phenyl]-2-(oxetan-3-ylamino)-8-(2-oxo-2-piperazin-1-yl-ethyl)pyrido[2,3-d]pyrimidin-7-one] | 54.5 nM
CNc1ncc2cc(-c3ccc(-c4cncc(C)n4)cc3Cl)c(=O)n(CC(=O)N3CC[C@H](N)C3)c2n1 [Example I-143, 8-[2-[(3S)-3-Aminopyrrolidin-1-yl]-2-oxo-ethyl]-6-[2-chloro-4-(6-methylpyrazin-2-yl)phenyl]-2-(methylamino)pyrido[2,3-d]pyrimidin-7-one] | 12.5 nM
CCNc1ncc2cc(-c3ccc(-c4cccc(C)n4)cc3C)c(=O)n(CCC3CNCCO3)c2n1 (single isomer, unassigned) [Example I-115] | 1.4 nM
CCNc1ncc2cc(-c3ccc(-c4cccc(C)n4)cc3C)c(=O)n(CCOCCN)c2n1 [Example I-76, 8-[2-(2-Aminoethoxy)ethyl]-2-(ethylamino)-6-[2-methyl-4-(6-methyl-2-pyridyl)phenyl]pyrido[2,3-d]pyrimidin-7-one] | 3.3 nM
CCNc1ncc2cc(-c3ccc(-c4cncc(C)n4)cc3Cl)c(=O)n(CC3(O)CCNCC3)c2n1 [Example I-54, 6-(2-Chloro-4-(6-methylpyrazin-2-yl)phenyl)-2-(ethylamino)-8-((4-hydroxypiperidin-4-yl)methyl)pyrido[2,3-d]pyrimidin-7(8H)-one] | 107 nM

Source: US20150031674A1, “SERINE/THREONINE KINASE INHIBITORS” (GENENTECH, INC., priority 2013, published 2015)
